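Cultured in 96-well plates, cells were exposed to test compound for 48 hours across five concentrations. At the GI50, growth is halved.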 The source made the active and inactive calls. Rule as the data show it: active = GI50 up to about 1.1 µM and inactive = higher.
Legend:
Test in all cases: NCI tumour cell line growth inhibition, 48 h
786-0 = system: 786-0
A498 = system: A498
A549 = system: A549
ACHN = system: ACHN
CAKI-1 = system: CAKI-1
CCRF-CEM = system: CCRF-CEM
COLO 205 = system: COLO 205
DLD-1 = system: DLD-1
DMS-114 = system: DMS-114
DMS-273 = system: DMS-273
EKVX = system: EKVX
HCC 2998 = system: HCC 2998
HCT-116 = system: HCT-116
HCT-15 = system: HCT-15
HL-60 = system: HL-60
HOP-18 = system: HOP-18
HOP-62 = system: HOP-62
HOP-92 = system: HOP-92
HT-29 = system: HT-29
IGROV-1 = system: IGROV-1
K562 = system: K562
KM-20L2 = system: KM-20L2
KM12 = system: KM12
LOX IMVI = system: LOX IMVI
LXFL 529 = system: LXFL 529
M14 = system: M14
M19-MEL = system: M19-MEL
MOLT-4 = system: MOLT-4
Malme-3M = system: Malme-3M
NCI-H226 = system: NCI-H226
NCI-H23 = system: NCI-H23
NCI-H460 = system: NCI-H460
OVCAR-3 = system: OVCAR-3
OVCAR-4 = system: OVCAR-4
OVCAR-5 = system: OVCAR-5
OVCAR-8 = system: OVCAR-8
RPMI-8226 = system: RPMI-8226
RXF 393 = system: RXF 393
SF-268 = system: SF-268
SF-295 = system: SF-295
SF-539 = system: SF-539
SK-MEL-28 = system: SK-MEL-28
SK-MEL-2 = system: SK-MEL-2
SK-MEL-5 = system: SK-MEL-5
SK-OV-3 = system: SK-OV-3
SN12C = system: SN12C
SNB-19 = system: SNB-19
SNB-75 = system: SNB-75
SNB-78 = system: SNB-78
SR = system: SR
SW-620 = system: SW-620
TK-10 = system: TK-10
U-251 = system: U-251
UACC-257 = system: UACC-257
UACC-62 = system: UACC-62
UO-31 = system: UO-31
XF498 = system: XF498
NCI-H522 = system: NCI-H522

`CC(=O)OC1C/C(C)=C/CCC(C)/C=C/C2(C)CCC(C(C)(C)O)C12` (centres undefined) was tested, and the GI50 (786-0) was 65 µM (inactive), the GI50 (A498) was > 100 µM (inactive) and the GI50 (A549) was 53 µM (inactive). For the same molecule, the GI50 (ACHN) was 36 µM (inactive), the GI50 (CAKI-1) was 59 µM (inactive) and the GI50 (CCRF-CEM) was 28.6 µM (inactive). The GI50 (COLO 205) was 39.8 µM (inactive), the GI50 (DLD-1) was 45.1 µM (inactive) and the GI50 (DMS-114) was 34.6 µM (inactive). The GI50 (DMS-273) was 44.2 µM (inactive), the GI50 (EKVX) was 63.2 µM (inactive) and the GI50 (HCC 2998) was 57.4 µM (inactive). The GI50 (HCT-116) was 26.2 µM (inactive), the GI50 (HCT-15) was 43.9 µM and the GI50 (HL-60) was 24.2 µM (inactive). For the same molecule, the GI50 (HOP-18) was > 100 µM (inactive), the GI50 (HOP-62) was 88.1 µM (inactive) and the GI50 (HOP-92) was 18.5 µM (inactive). The GI50 (HT-29) was 33.4 µM (inactive), the GI50 (IGROV-1) was 36.8 µM (inactive) and the GI50 (K562) was 36.7 µM (inactive). The GI50 (KM-20L2) was 49.4 µM (inactive), the GI50 (KM12) was 51.2 µM (inactive) and the GI50 (LOX IMVI) was 39.1 µM (inactive). The GI50 (LXFL 529) was 58.5 µM (inactive), the GI50 (M14) was 52.6 µM (inactive) and the GI50 (M19-MEL) was 28.9 µM (inactive). For the same molecule, the GI50 (MOLT-4) was 30.4 µM (inactive), the GI50 (Malme-3M) was 63 µM (inactive) and the GI50 (NCI-H226) was 45.1 µM (inactive). For the same molecule, the GI50 (NCI-H23) was 42.5 µM (inactive), the GI50 (NCI-H460) was 39.2 µM (inactive) and the GI50 (OVCAR-3) was 46.7 µM (inactive). The GI50 (OVCAR-4) was 49.8 µM (inactive), the GI50 (OVCAR-5) was > 100 µM (inactive) and the GI50 (OVCAR-8) was 57 µM (inactive). For the same molecule, the GI50 (RPMI-8226) was 23.2 µM (inactive), the GI50 (RXF 393) was 14 µM (inactive) and the GI50 (SF-268) was 61.7 µM (inactive). For the same molecule, the GI50 (SF-295) was 80.7 µM (inactive), the GI50 (SF-539) was > 100 µM (inactive) and the GI50 (SK-MEL-28) was 72.1 µM (inactive). The GI50 (SK-MEL-2) was 34.4 µM (inactive), the GI50 (SK-MEL-5) was 47.6 µM (inactive) and the GI50 (SK-OV-3) was > 100 µM (inactive). For the same molecule, the GI50 (SN12C) was 32.1 µM (inactive), the GI50 (SNB-19) was > 100 µM (inactive) and the GI50 (SNB-75) was 40.7 µM (inactive). The GI50 (SNB-78) was 61.9 µM (inactive), the GI50 (SR) was 18.6 µM (inactive) and the GI50 (SW-620) was 47.5 µM (inactive). For the same molecule, the GI50 (TK-10) was > 100 µM (inactive), the GI50 (U-251) was 39.4 µM (inactive) and the GI50 (UACC-257) was 26.1 µM (inactive). The GI50 (UACC-62) was 80.4 µM (inactive), the GI50 (UO-31) was 37.3 µM (inactive) and the GI50 (XF498) was 39.4 µM (inactive).
For `CSc1cc(C(C)(C)C)ccc1C(O)c1ccc(C(C)(C)C)cc1SC`, the GI50 (786-0) was 10.8 µM (inactive), the GI50 (A498) was 13.2 µM (inactive) and the GI50 (A549) was 10.6 µM (inactive). The GI50 (ACHN) was 11.5 µM (inactive), the GI50 (CAKI-1) was 11.3 µM (inactive) and the GI50 (CCRF-CEM) was 10.9 µM (inactive). The GI50 (COLO 205) was 11 µM (inactive), the GI50 (DLD-1) was 8.36 µM (inactive) and the GI50 (DMS-114) was 7.69 µM (inactive). For the same molecule, the GI50 (DMS-273) was 10.9 µM (inactive), the GI50 (EKVX) was 6.81 µM (inactive) and the GI50 (HCC 2998) was 18.2 µM (inactive). The GI50 (HCT-116) was 5.56 µM (inactive), the GI50 (HCT-15) was 7.83 µM and the GI50 (HL-60) was 4.91 µM (inactive). The GI50 (HOP-18) was 15.5 µM (inactive), the GI50 (HOP-62) was 13.5 µM (inactive) and the GI50 (HOP-92) was 14.5 µM (inactive). For the same molecule, the GI50 (HT-29) was 5.79 µM (inactive), the GI50 (IGROV-1) was 10.1 µM (inactive) and the GI50 (K562) was 7.14 µM (inactive). For the same molecule, the GI50 (KM-20L2) was 11 µM (inactive), the GI50 (KM12) was 11.5 µM (inactive) and the GI50 (LOX IMVI) was 12 µM (inactive). For the same molecule, the GI50 (LXFL 529) was 13.7 µM (inactive), the GI50 (M14) was 12.2 µM (inactive) and the GI50 (M19-MEL) was 10.2 µM (inactive). For the same molecule, the GI50 (MOLT-4) was 3.35 µM (inactive), the GI50 (Malme-3M) was 14 µM (inactive) and the GI50 (NCI-H226) was 12.9 µM (inactive). The GI50 (NCI-H23) was 8.49 µM (inactive), the GI50 (NCI-H460) was 8.2 µM (inactive) and the GI50 (NCI-H522) was 10.2 µM (inactive). For the same molecule, the GI50 (OVCAR-3) was 12.4 µM (inactive), the GI50 (OVCAR-4) was 10.9 µM (inactive) and the GI50 (OVCAR-5) was 14 µM (inactive). The GI50 (OVCAR-8) was 11.4 µM (inactive), the GI50 (RXF 393) was 12.1 µM (inactive) and the GI50 (SF-268) was 13.3 µM (inactive). The GI50 (SF-295) was 10.5 µM (inactive), the GI50 (SF-539) was 16 µM (inactive) and the GI50 (SK-MEL-28) was 17.5 µM (inactive). For the same molecule, the GI50 (SK-MEL-2) was 15.1 µM (inactive), the GI50 (SK-MEL-5) was 14.4 µM (inactive) and the GI50 (SK-OV-3) was 17.5 µM (inactive). For the same molecule, the GI50 (SN12C) was 13.1 µM (inactive), the GI50 (SNB-19) was 16 µM (inactive) and the GI50 (SNB-75) was 12.8 µM (inactive). The GI50 (SNB-78) was 15.6 µM (inactive), the GI50 (SR) was 10.2 µM (inactive) and the GI50 (SW-620) was 11.3 µM (inactive). For the same molecule, the GI50 (TK-10) was 15.2 µM (inactive), the GI50 (U-251) was 14.1 µM (inactive) and the GI50 (UACC-257) was 10.4 µM (inactive). The GI50 (UACC-62) was 15.3 µM (inactive), the GI50 (UO-31) was 6.37 µM (inactive) and the GI50 (XF498) was 10.8 µM (inactive).
